Data from patent US6503928B2, “Arylpiperidine and aryl-1,2,5,6-tetrahydropyridine amide derivatives” (Wyeth, priority 1998, dated 2003).
Where a name gives a salt, the structure may show the parent alone.

Columns and labels:
[1] = target: T1, human 5HT1A receptor (Homo sapiens, UniProt P08908); test: 5-HT1A receptor intrinsic activity assay (cAMP); assay type: cell-based; conditions: for EC50: agonist mode: reversal of forskolin-stimulated cAMP in CHO cells transfected with human 5-HT1A; for IC50: antagonist mode: reversal of agonist-induced activity, antagonist preincubated 20 minutes before agonist and forskolin
T1 construct: expressed in transfected cells; host or cells: CHO cells (stably transfected)
T1 sequence (P08908 1-422): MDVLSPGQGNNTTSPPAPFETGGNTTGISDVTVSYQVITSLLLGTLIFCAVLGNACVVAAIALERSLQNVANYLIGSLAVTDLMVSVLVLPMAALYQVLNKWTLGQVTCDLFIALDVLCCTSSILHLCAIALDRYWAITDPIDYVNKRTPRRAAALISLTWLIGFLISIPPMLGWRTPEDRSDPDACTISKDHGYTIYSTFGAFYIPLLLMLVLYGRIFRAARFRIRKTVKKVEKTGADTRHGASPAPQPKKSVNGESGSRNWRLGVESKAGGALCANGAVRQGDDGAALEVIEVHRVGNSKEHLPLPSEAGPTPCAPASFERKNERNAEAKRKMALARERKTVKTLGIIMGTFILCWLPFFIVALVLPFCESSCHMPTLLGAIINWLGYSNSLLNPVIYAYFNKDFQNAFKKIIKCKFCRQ
Description: 5-HT1A Receptor Intrinsic Activity Assay
The intrinsic activity of compounds of the present invention was established by testing the claimed compounds ability to reverse the stimulation of cyclic adenosinemonophosphate (cAMP) in CHO cells stably transfected with the human 5-HT1A receptor.
Stably transfected CHO cells were grown in DMEM containing 10% heat inactivated FBS and non-essential amino acids. The cells are plated at a density of […] cells per well in a 24 well plate and incubated for 2 days in a CO2 incubator. On the second day, the media is replaced with 0.5 mL treatment buffer (DMEM+25 mM HEPES, 5 mM theophylline, 10 μM pargyline) and incubated for 10 minutes at 37° C. Wells are treated with forskolin (1 μM final concentration) followed immediately by the test compound (0.1 and 1 μM for initial screen) and incubated for an additional 10 minutes at 37° C. The reaction is terminated by removal of the media and addition of 0.5 mL ice cold assay buffer (supplied in the RIA kit). Plates are stored at −20° C. prior to assessment of cAMP formation by RIA. EC50 values are determined for the active test compounds. Compounds shown to have no agonist activities (Emax=0%) are further analyzed for their ability to reverse agonist-induced activity. In separate experiments, 6 concentrations of antagonist are preincubated for 20 minutes prior to the addition of agonist and forskolin. Cells are harvested as described above. The cAMP kit is supplied by Amersham and the RIA is performed as per kit instructions, and calculations of IC50 performed by GraphPad Prism.

[2] = target: T1, human 5HT1A receptor; test: 5-HT1A receptor binding assay ([3H] 8-OH-DPAT displacement); conditions: displacement of [3H] 8-OH-DPAT, CHO cells stably transfected with human 5HT1A receptor
Description: 5-HT1A Receptor Binding Assay
High affinity for the serotonin 5-HT1A receptor was established by testing the compound's ability to displace [^3H] 8-OH-DPAT bindino in CHO cells stably transfected with human 5HT1A receptor. Stably transfected CHO cells are grown in DMEM containing 10% heat inactivated FBS and non-essential amino acids. Cells are scraped off the plate, transferred to centrifuge tubes, and washed twice by centrifugation (2000 rpm for 10 min., 4° C.) in buffer (50 mM Tris pH 7.5). The resulting pellets are aliquoted and placed at −80° C. On the day of assay, the cells are thawed on ice and resuspended in buffer. The binding assay is performed in a 96 well microtiter plate in a total volume of 250 μL. Non-specific binding is determined in the presence of […] 5-HT, final ligand concentration is 1.5 nM. Following a 30 minute incubation at room temperature, the reaction is terminated by the addition of ice cold buffer and rapid filtration through a GF/B filter presoaked for 30 minutes in 0.5% PEI. Compounds are initially tested in a single point assay to determine percent inhibition at […], and Ki values are determined for the active compounds.

[3] = agonist mode: reversal of forskolin-stimulated cAMP, Emax=0% means no agonist activity

Structure (SMILES)	Ki [2] [nM]	melting point [°C]	also measured
COc1ccccc1C1CCN(C[C@@H](Cc2ccncc2)NC(=O)C2(C)CCCCC2)CC1 [Example 8, 1-Methyl-cyclohexanecarboxylic Acid {(1R)-2-[4-(2-Methoxy-phenyl)-piperidin-1-yl]-1-pyridin-4-ylmethyl-ethyl}-amide]	0.63	–	Emax [1, 3]: 0%
COc1ccccc1C1CCN(C[C@@H](Cc2cccnc2)NC(=O)C2(C)CCCCC2)CC1 (as salt: fumarate) [Example 7, 1-Methyl-cyclohexanecarboxylic Acid {(1R)-2-[4-(2-Methoxy-phenyl)-piperidin-1-yl]-1-pyridin-3-ylmethyl-ethyl}-amide]	–	99 to 101	–
COc1ccccc1C1CCN(C[C@@H](Cc2ccncc2)NC(=O)C2(C)CCCCC2)CC1 (as salt: fumarate) [Example 8, 1-Methyl-cyclohexanecarboxylic Acid {(1R)-2-[4-(2-Methoxy-phenyl)-piperidin-1-yl]-1-pyridin-4-ylmethyl-ethyl}-amide]	–	108 to 110	–
COc1ccccc1C1CCN(C[C@@H](Cc2cccnc2)N(C)C(=O)C2CCCCC2)CC1 [Example 9, Cyclohexanecarboxylic Acids {(1R)-2-[4-(2-Methoxy-phenyl)-piperidin-1-yl]-1-pyridin-3-ylmethyl-ethyl}-methyl-amide]	1.77	–	Emax [1, 3]: 0%
COc1ccccc1C1=CCN(C[C@@H](Cc2ccccc2)NC(=O)C2(C)CCCCC2)CC1 [Example 4, (R)-1-Methyl-cyclohexanecarboxylic Acid {1-Benzyl-2-[4-(2-methoxy-phenyl)-3,6-dihydro-2H-pyridin-1-yl]-ethyl}-amide]	0.25	–	EC50 [1]: 4.3 nM
COc1ccccc1C1CCN(C[C@@H](Cc2cccnc2)N(C)C(=O)C2CCCCC2)CC1 (as salt: hydrochloride) [Example 9, Cyclohexanecarboxylic Acids {(1R)-2-[4-(2-Methoxy-phenyl)-piperidin-1-yl]-1-pyridin-3-ylmethyl-ethyl}-methyl-amide]	–	148 to 150	–
COc1ccccc1C1CCN(C[C@@H](Cc2ccncc2)N(C)C(=O)C2CCCCC2)CC1 [Example 10, Cyclohexanecarboxylic acid {(1R)-2-[4-(2-Methoxy-phenyl)-piperidin-1-yl]-1-pyridin-4-ylmethyl-ethyl}-methyl-amide]	1.18	–	Emax [1, 3]: 0%; IC50 [1]: 19.3 nM
COc1ccc(F)cc1C1=CCN(C[C@@H](Cc2ccccc2)N(C)C(=O)C2(C)CCCCC2)CC1 [Example 2, 1-Methyl-cyclohexanecarboxylic Acid {(1R)-1-Benzyl-2-[4-(5-fluoro-2-methoxy-phenyl)-1,2,5,6-tetrahydro-4H-pyridin-1-yl]-ethyl}-methyl-amide]	4.9	–	cAMP Emax [1, 3]: 0%
COc1ccccc1C1=CCN(C[C@@H](Cc2ccccc2)NC(=O)C2(C)CCCCC2)CC1 (as salt: fumarate) [Example 4, (R)-1-Methyl-cyclohexanecarboxylic Acid {1-Benzyl-2-[4-(2-methoxy-phenyl)-3,6-dihydro-2H-pyridin-1-yl]-ethyl}-amide]	–	102 to 104	–
COc1ccc(F)cc1C1CCN(C[C@@H](Cc2ccccc2)N(C)C(=O)C2(C)CCCCC2)CC1 (as salt: fumarate) [Example 1, 1-Methyl-cyclohexanecarboxylic Acid {(1R)-1-Benzyl-2-[4-(5-fluoro-2-methoxy-phenyl)-piperidine-1-yl]-ethyl}-methyl-amide]	–	160 to 165	–
COc1ccccc1C1=CCN(C[C@@H](Cc2ccccc2)NC(=O)C2CCCCC2)CC1 (as salt: fumarate) [Example 3, (R)-Cyclohexanecarboxylic Acid {1-Benzyl-2-[4-(2-methoxy-phenyl)-3,6-dihydro-2H-pyridin-1-yl]-ethyl}-amide]	–	146 to 148	–
COc1ccccc1C1CCN(C[C@@H](Cc2cccnc2)NC(=O)C2(C)CCCCC2)CC1 [Example 7, 1-Methyl-cyclohexanecarboxylic Acid {(1R)-2-[4-(2-Methoxy-phenyl)-piperidin-1-yl]-1-pyridin-3-ylmethyl-ethyl}-amide]	0.74	–	Emax [1, 3]: 0%; IC50 [1]: 38 nM
COc1ccccc1C1CCN(C[C@@H](Cc2ccccc2)NC(=O)C2(C)CCCCC2)CC1 (as salt: fumarate) [Example 5, (R)-1-Methyl-cyclohexanecarboxylic Acid {1-Benzyl-2-[4-(2-methoxy-phenyl)-piperidin-1-yl]-ethyl}-amide]	–	77 to 79	–
COc1ccccc1C1CCN(C[C@@H](Cc2ccncc2)N(C)C(=O)C2CCCCC2)CC1 (as salt: hydrochloride) [Example 10, Cyclohexanecarboxylic acid {(1R)-2-[4-(2-Methoxy-phenyl)-piperidin-1-yl]-1-pyridin-4-ylmethyl-ethyl}-methyl-amide]	–	158 to 160	–
COc1ccccc1C1CCN(C[C@@H](Cc2ccccc2)NC(=O)C2CCCCC2)CC1 (as salt: fumarate) [Example 6, (R)-Cyclohexanecarboxylic Acid {1-Benzyl-2-[4-(2-methoxy-phenyl)-piperidin-1-yl]-ethyl}-amide]	–	103 to 105	–
COc1ccccc1C1=CCN(C[C@@H](Cc2ccccc2)NC(=O)C2CCCCC2)CC1 [Example 3, (R)-Cyclohexanecarboxylic Acid {1-Benzyl-2-[4-(2-methoxy-phenyl)-3,6-dihydro-2H-pyridin-1-yl]-ethyl}-amide]	0.22	–	EC50 [1]: 3.4 nM
